In article PMC9000336, “Development of Bicyclo[3.1.0]hexane-Based A3 Receptor Ligands: Closing the Gaps in the Structure–Affinity Relationships” (Molecules, 2022):
Read-outs that look alike come from different tables or passages of the source.

Target: T1, human adenosine A3 receptor (Homo sapiens, UniProt P0DMS8)
T1 construct: expressed in transfected cells; host or cells: CHO cells (CHOhA3R), gift of Dr. K.-N. Klotz (University of Würzburg); membrane preparation
T1 sequence (P0DMS8 1-318): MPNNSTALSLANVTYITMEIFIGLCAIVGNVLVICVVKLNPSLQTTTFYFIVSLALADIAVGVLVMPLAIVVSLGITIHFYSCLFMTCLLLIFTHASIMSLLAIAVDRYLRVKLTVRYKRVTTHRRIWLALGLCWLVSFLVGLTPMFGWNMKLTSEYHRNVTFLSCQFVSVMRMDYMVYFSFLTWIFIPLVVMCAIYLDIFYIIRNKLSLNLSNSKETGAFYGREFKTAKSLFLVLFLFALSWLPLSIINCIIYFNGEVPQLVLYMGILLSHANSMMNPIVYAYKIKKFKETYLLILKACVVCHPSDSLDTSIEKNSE
Assay: Radioligand displacement assay, human adenosine A3 receptor ([3H]PSB11, CHOhA3R membranes)
Format: binding
Conditions: for Ki / inhibition at 10 µM / A3 displacement at 1 µM: n = 3; for inhibition at 10 µM: test compound 10 µM; for A3 displacement at 1 µM: footnote a: test compound 1 µM
Procedure: Chinese hamster ovary (CHO) cells stably expressing the human adenosine A1 receptor (CHOhA1R) were kindly provided by Prof. S. J. Hill and CHO cells stably expressing the human adenosine A3 receptor (CHOhA3R) were a gift from Dr. K.-N. Klotz (University of Würzburg, Germany). Chinese hamster ovary cells stably expressing the human A1-receptor (CHOhA1R) or the human A3-receptor (CHOhA3R) were grown in Dulbecco’s Modified Eagle’s Medium (DMEM) and Ham’s F12 medium (1:1) supplemented with 10% (v/v) newborn calf serum, 50 µg/mL streptomycin, 50 IU/mL penicillin, and 200 µg/mL G418 at 37 °C and 5% CO2. […] All cells were grown to 80–90% confluency and detached from plates by scraping them into 5 mL phosphate-buffered saline. Detached cells were collected and centrifuged at 200 g for 5 min. Pellets derived from 100 15 cm Ø plates were pooled and resuspended in 70 mL of ice-cold 50 mM tris(hydroxymethyl)aminomethane (Tris)-HCl buffer, pH 7.4. A Heidolph Diax 900 homogenizer was used to homogenize the cell suspension. Membranes and the cytosolic fraction were separated by centrifugation at 100,000 g in a Beckman Optima LE-80 K ultracentrifuge (Beckman Coulter, Fullerton, CA, USA) at 4 °C for 20 min. The pellet was resuspended in 35 mL of the Tris-HCl buffer, and the homogenization and centrifugation steps were repeated. Tris-HCl buffer (25 mL) was used to resuspend the pellet, and adenosine deaminase (ADA) was added (0.8 U/mL) to break down endogenous adenosine. Membranes were stored in 250 µL and 500 µL aliquots at −80 °C. Total protein concentrations were measured using the bicinchoninic acid (BCA) method.
A3 Receptor: Membrane aliquots containing 15 µg (CHOhA3R) total protein were incubated in a total volume of 100 µL assay buffer (50 mM Tris-HCl, pH 8.0, supplemented with 10 mM MgCl2, 1 mM EDTA and 0.01% (w/v) CHAPS) at 25 °C for 2 h. Radioligand displacement experiments were performed using six concentrations of competing ligand in the presence of 10 nM [^3H]8-ethyl-4-methyl-2-phenyl-(8R)-4,5,7,8-tetrahydro-1H-imidazo[2.1-i]purin-5-one ([^3H]PSB11). […] Nonspecific binding was determined in the presence of 100 µM NECA. Incubations were terminated by rapid vacuum filtration to separate the bound and free radioligand through prewetted 96-well GF/B filter plates using a PerkinElmer Filtermate-harvester (Perkin Elmer, Groningen, The Netherlands). Filters were subsequently washed 12 times with ice-cold 50 mM Tris-HCl supplemented with 10 mM MgCl2, and 1 mM EDTA, pH 8.0 for CHOhA3R.
The plates of all four adenosine receptor assays were dried at 55 °C after which MicroscintTM-20-cocktail was added (Perkin Elmer, Groningen, The Netherlands).
All experimental data were analyzed using the non-linear regression curve fitting program GraphPad Prism 7.0 (GraphPad Software Inc., San Diego, CA, USA). IC50 values obtained from competition displacement binding data were converted into Ki values using the Cheng–Prusoff equation.

[1] = [3H]PSB11, read-out: A3 Ki ± SEM
[2] = footnote a: tested at 1 µM, read-out: A3 Ki (bound, footnote a)

OC[C@@]12C[C@@H]1[C@@H](n1cnc3c(NCc4ccccc4)cc(Cl)nc31)[C@H](O)[C@@H]2O [Compound 13, (1R,2R,3S,4R,5S)-4-[7-(Benzylamino)-5-chloro-3H-imidazo[4,5-b]pyridin-3-yl]-1-(hydroxymethyl)bicyclo[3.1.0]hexane-2,3-diol]
Ki [1]: 460 ± 20 nM

CSc1cc(NCc2ccccc2)c2ncn([C@H]3[C@H](O)[C@H](O)[C@]4(CO)C[C@H]34)c2n1 [Compound 14, (1R,2R,3S,4R,5S)-4-[7-(Benzylamino)-5-methylthio-3H-imidazo[4,5-b]pyridin-3-yl]-1-(hydroxymethyl)bicyclo[3.1.0]hexane-2,3-diol]
Ki [1]: 1510 ± 30 nM

COc1ccc(CNc2cc(Cl)nc3c2ncn3[C@H]2[C@H](O)[C@H](O)[C@]3(CO)C[C@H]23)cc1 [Compound 15, (1R,2R,3S,4R,5S)-4-{5-Chloro-7-[(4-methoxy)benzylamino]-3H-imidazo[4,5-b]pyridin-3-yl}-1-(hydroxymethyl)bicyclo[3.1.0]hexane-2,3-diol]
Ki [1]: 500 ± 10 nM

Nc1cc(Cl)nc2c1ncn2[C@H]1[C@H](O)[C@H](O)[C@]2(CO)C[C@H]12 [Compound 16, (1R,2R,3S,4R,5S)-4-(7-Amino-5-chloro-3H-imidazo[4,5-b]pyridin-3-yl)-1-(hydroxymethyl)bicyclo[3.1.0]hexane-2,3-diol]
Ki [1]: 1600 ± 110 nM

OC[C@@]12C[C@@H]1[C@@H](n1cnc3c(N(Cc4ccccc4)Cc4ccccc4)ncnc31)[C@H](O)[C@@H]2O [Compound 26, (1R,2R,3S,4R,5S)-4-[6-(Dibenzylamino)-9H-purin-9-yl]-1-(hydroxymethyl)bicyclo[3.1.0]hexane-2,3-diol]
potency at the A3 receptor: not potent
inhibition at 10 µM: 8%

OC[C@@]12C[C@@H]1[C@@H](n1cnc3c(N(Cc4ccccc4)Cc4ccccc4)nc(Cl)nc31)[C@H](O)[C@@H]2O [Compound 27, (1R,2R,3S,4R,5S)-4-[6-(Dibenzylamino)-2-chloro-9H-purin-9-yl]-1-(hydroxymethyl)bicyclo[3.1.0]hexane-2,3-diol]
potency at the A3 receptor: not potent
inhibition at 10 µM: 4%

CSc1nc(N(Cc2ccccc2)Cc2ccccc2)c2ncn([C@H]3[C@H](O)[C@H](O)[C@]4(CO)C[C@H]34)c2n1 [Compound 30, (1R,2R,3S,4R,5S)-4-[6-(Dibenzylamino)-2-methylthio-9H-purin-9-yl]-1-(hydroxymethyl)bicyclo[3.1.0]hexane-2,3-diol]
Ki [1]: 380 ± 10 nM
A3R selectivity (versus other P1 receptor subtypes): high A3R selectivity

CSc1nc(N(Cc2ccccc2)Cc2ccccc2)c2ncn([C@H]3[C@H](O)[C@H](O)[C@]4(CCl)C[C@H]34)c2n1 [Compound 31, (1S,2R,3S,4R,5S)-4-[6-(Dibenzylamino)-2-methylthio-9H-purin-9-yl]-1-(chloromethyl)bicyclo[3.1.0]hexane-2,3-diol]
potency at the A3 receptor: not potent
inhibition at 10 µM: 26%

Nc1ncnc2c1ncn2[C@H]1[C@H](O)[C@H](O)[C@]2(CO)C[C@H]12 [Compound 36, (N)-methanocarba adenosine]
Ki [1]: 960 ± 50 nM

CSc1nc(N)c2ncn([C@H]3[C@H](O)[C@H](O)[C@]4(Cn5cc(CO)nn5)C[C@H]34)c2n1 [Compound 39, (1R,2R,3S,4R,5S)-4-(6-Amino-2-methylthio-9H-purin-9-yl)-1-{[4-(hydroxymethyl)-1H-1,2,3-triazol-1-yl]methyl}bicyclo[3.1.0]hexane-2,3-diol]
inhibition at 10 µM: 37%

COC(=O)c1cn(C[C@@]23C[C@@H]2[C@@H](n2cnc4c(N)nc(SC)nc42)[C@H](O)[C@@H]3O)nn1 [Compound 40, Methyl 1-{[(1R,2R,3S,4R,5S)-4-(6-amino-2-methylthio-9H-purin-9-yl)-2,3-dihydroxybicyclo[3.1.0]hex-1-yl]methyl}-1H-1,2,3-triazole-4-carboxylate]
inhibition at 10 µM: 8%

COC(=O)Cc1cn(C[C@@]23C[C@@H]2[C@@H](n2cnc4c(N)nc(SC)nc42)[C@H](O)[C@@H]3O)nn1 [Compound 41, Methyl 2-(1-{[(1R,2R,3S,4R,5S)-4-(6-amino-2-methylthio-9H-purin-9-yl)-2,3-dihydroxybicyclo[3.1.0]hex-1-yl]methyl}-1H-1,2,3-triazol-4-yl)acetate]
A3 displacement at 1 µM: 3% ^a

COC(=O)CCc1cn(C[C@@]23C[C@@H]2[C@@H](n2cnc4c(N)nc(SC)nc42)[C@H](O)[C@@H]3O)nn1 [Compound 42, Methyl 3-(1-{[(1R,2R,3S,4R,5S)-4-(6-amino-2-methylthio-9H-purin-9-yl)-2,3-dihydroxybicyclo[3.1.0]hex-1-yl]methyl}-1H-1,2,3-triazol-4-yl)propanoate]
Ki [1]: 6350 ± 230 nM

CSc1nc(N)c2ncn([C@H]3[C@H](O)[C@H](O)[C@]4(Cn5cc(CN)nn5)C[C@H]34)c2n1 [Compound 43, (1R,2R,3S,4R,5S)-4-(6-Amino-2-methylthio-9H-purin-9-yl)-1-{[4-(aminomethyl)-1H-1,2,3-triazol-1-yl]methyl}bicyclo[3.1.0]hexane-2,3-diol]
inhibition at 10 µM: 13%

CSc1nc(N)c2ncn([C@H]3[C@H](O)[C@H](O)[C@]4(Cn5cc(C(=O)O)nn5)C[C@H]34)c2n1 [Compound 44, 1-{[(1R,2R,3S,4R,5S)-4-(6-Amino-2-methylthio-9H-purin-9-yl)-2,3-dihydroxybicyclo[3.1.0]hex-1-yl]methyl}-1H-1,2,3-triazole-4-carboxylic acid]
Ki [2]: > 1000 nM

CSc1nc(N)c2ncn([C@H]3[C@H](O)[C@H](O)[C@]4(Cn5cc(CC(=O)O)nn5)C[C@H]34)c2n1 [Compound 45, 2-(1-{[(1R,2R,3S,4R,5S)-4-(6-Amino-2-methylthio-9H-purin-9-yl)-2,3-dihydroxybicyclo[3.1.0]hex-1-yl]methyl}-1H-1,2,3-triazol-4-yl)acetic acid]
Ki [2]: > 1000 nM

CSc1nc(N)c2ncn([C@H]3[C@H](O)[C@H](O)[C@]4(Cn5cc(CCC(=O)O)nn5)C[C@H]34)c2n1 [Compound 46]
Ki [2]: > 1000 nM

CCN(CC)CC.CSc1nc(N)c2ncn([C@H]3[C@H](O)[C@H](O)[C@]4(CNc5c(O)c(=O)c5=O)C[C@H]34)c2n1 [Compound 47, Triethylammonium 2-{[(1R,2R,3S,4R,5S)-4-(6-Amino-2-methylthio-9H-purin-9-yl)-2,3-dihydroxybicyclo[3.1.0]hex-1-yl]methyl}amino-3,4-dioxocyclobut-1-en-1-olate]
A3 displacement at 1 µM: 6% ^a

CCN(CC)CC.CSc1nc(N)c2ncn([C@H]3[C@H](O)[C@H](O)[C@]4(CNS(=O)(=O)CC(=O)O)C[C@H]34)c2n1 [Compound 48, Triethylammonium 2-(N-{[(1R,2R,3S,4R,5S)-4-(6-amino-2-methylthio-9H-purin-9-yl)-2,3-dihydroxybicyclo[3.1.0]hex-1-yl]methyl}sulfamoyl)acetate]
A3 displacement at 1 µM: 5% ^a
